Experiments:
[1] = target: T1, native aSyn aggregates in A30P transgenic mouse brain sections (Homo sapiens, UniProt P37840, A30P); assay: aSyn in vitro displacement assay ([3H]Example-3 autoradiography); assay type: binding, mutant human aSyn gene); details: 1 μM compound; 3 nM [3H]Example-3; A30P transgenic mouse brain sections; read-out: PCT_INHIB A30P @ 1 μM (% displacement of [3H]Example-3)
T1 construct: from tissue; host or cells: brain sections (midbrain and pons as ROI) of A30P transgenic mice, line B6.D2-Tg(Thy1-SNCA*30P)31Pjk

[2] = target: T2, native Aβ aggregates in human AD brain tissue sections (Homo sapiens, UniProt P05067); assay: Aβ in vitro displacement assay (selectivity counterscreen, [3H]Example 3 autoradiography); assay type: binding; details: 1 μM compound; 3 nM [3H]Example 3; human AD brain sections; read-out: sel. counterscreen PCT_INHIB AD @ 1 μM (% displacement of [3H]Example 3)
T2 construct: native Aβ aggregates in human AD brain tissue samples; from tissue; host or cells: human AD brain tissue sections
T2 sequence (P05067 672-713 limits assumed): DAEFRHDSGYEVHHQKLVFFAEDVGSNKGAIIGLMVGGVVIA

| inhibition at 1 µM [1] | inhibition at 1 µM [2] | SMILES |
| --- | --- | --- |
| 91% | 106% | COc1ccc(C(=O)Nc2ccc(N3CCN(c4cc(OC)ccn4)CC3)cc2)cc1 [Example 82, 4-Methoxy-N-[4-[4-(4-methoxy-2-pyridyl)piperazin-1-yl]phenyl]benzamide] |
| 86% | 95% | COc1ccc(C(=O)Nc2ccc(N3CCN(c4ccncc4C)CC3)cc2)cc1 [Example 83, Acetic acid; 4-Methoxy-N-[4-[4-(3-methyl-4-pyridyl)piperazin-1-yl]phenyl]benzamide] |
| 85% | 54% | COc1cccc(C(=O)Nc2ccc(N3CCN(c4ccc(C#N)cn4)CC3)cc2)n1 [Example 91, N-(4-(4-(5-Cyanopyridin-2-yl)piperazin-1-yl)phenyl)-6-methoxypicolinamide] |
| 99% | 89% | COc1cccc(C(=O)Nc2ccc(N3CCN(c4ccc(C#N)cc4)CC3)cc2)n1 [Example 93, N-(4-(4-(4-Cyanophenyl)piperazin-1-yl)phenyl)-6-methoxypicolinamide] |
| 83% | 95% | COc1ccc(C(=O)Nc2ccc(N3CCN(c4ccc(C#N)cn4)CC3)cn2)cc1 [Example 95, N-(5-(4-(5-Cyanopyridin-2-yl)piperazin-1-yl)pyridin-2-yl)-4-methoxybenzamide] |
| 84% | 66% | COc1ccc(C(=O)Nc2ccc(N3CCN(c4ccc(C#N)cc4)CC3)cn2)cc1 [Example 96, N-(5-(4-(4-Cyanophenyl)piperazin-1-yl)pyridin-2-yl)-4-methoxybenzamide] |
| 97% | 106% | COc1ccc(C(=O)Nc2cnc(N3CCN(c4ccc(C#N)cc4)CC3)nc2)cc1 [Example 97, N-(2-(4-(4-Cyanophenyl)piperazin-1-yl)pyrimidin-5-yl)-4-methoxybenzamide] |
| 86% | 85% | COc1ccc(C(=O)Nc2ccc(N3CCN(c4cccc(C#N)n4)CC3)cc2)cc1 [Example 100, N-[4-[4-(6-Cyano-2-pyridyl)piperazin-1-yl]phenyl]-4-methoxy-benzamide] |
| 95% | 99% | COc1ccc(C(=O)Nc2ccc(N3CCN(c4ccccc4)CC3)cc2)cc1 [Example 101, 4-Methoxy-N-[4-(4-phenylpiperazin-1-yl)phenyl]benzamide] |
| 89% | 88% | COc1ccc(C(=O)Nc2ccc(N3CCN(c4cc(C)ccn4)CC3)cc2)cc1 [Example 102, 4-Methoxy-N-[4-[4-(4-methyl-2-pyridyl)piperazin-1-yl]phenyl]benzamide] |
| 100% | 99% | COc1ccc(C(=O)Nc2ccc(N3CCN(c4cccc(C#N)c4)CC3)cc2)cc1 [Example 103, N-[4-[4-(3-Cyanophenyl)piperazin-1-yl]phenyl]-4-methoxy-benzamide] |
| 98% | 100% | COc1ccc(C(=O)Nc2ccc(N3CCN(c4cccc(F)c4)CC3)cc2)cc1 [Example 104, N-[4-[4-(3-Fluorophenyl)piperazin-1-yl]phenyl]-4-methoxy-benzamide] |
| 100% | 98% | COc1ccc(C(=O)Nc2ccc(N3CCN(c4ccc(F)cc4)CC3)cc2)cc1 [Example 105, N-[4-[4-(4-Fluorophenyl)piperazin-1-yl]phenyl]-4-methoxy-benzamide] |
| 81% | 92% | N#Cc1ccc(N2CCN(c3ccc(NC(=O)c4ccc(O)cc4)cc3)CC2)nc1 [Example 108, N-(4-(4-(5-cyanopyridin-2-yl)piperazin-1-yl)phenyl)-4-hydroxybenzamide] |
| 96% | 97% | COc1ccc(C(=O)Nc2ccc(N3CCN(c4ccc(C)cc4)CC3)cc2)cc1 [Example 109, 4-Methoxy-N-[4-[4-(p-tolyl)piperazin-1-yl]phenyl]benzamide] |
| 99% | 99% | COc1ccc(C(=O)Nc2ccc(N3CCN(c4ccc(OC)cc4)CC3)cc2)cc1 [Example 110, 4-Methoxy-N-[4-[4-(4-methoxyphenyl)piperazin-1-yl]phenyl]benzamide] |
| 94% | 92% | COc1ccc(C(=O)Nc2ccc(N3CCN(c4ccc(S(C)(=O)=O)cc4)CC3)cc2)cc1 [Example 111, 4-Methoxy-N-[4-[4-(4-methylsulfonylphenyl)piperazin-1-yl]phenyl]benzamide] |
| 87% | 74% | COc1ccc(C(=O)Nc2ccc(N3CCN(c4ccc(C#N)cc4)CC3)c(C)c2)cc1 [Example 112, N-[4-[4-(4-Cyanophenyl)piperazin-1-yl]-3-methyl-phenyl]-4-methoxy-benzamide] |

The next lines start with the compound.

| SMILES | inhibition at 1 µM [1] | inhibition at 1 µM [2] |
| --- | --- | --- |
| COc1ccc(C(=O)Nc2ccc(N3CCN(c4ccccn4)CC3)cn2)c(C)c1 [Example 80, 4-Methoxy-2-methyl-N-[5-(4-pyridin-2-ylpiperazin-1-yl)pyridin-2-yl]benzamide] | 90% | 94% |
| CN1CCN(c2ccc(C(=O)Nc3ccc(N4CCN(c5ccccn5)CC4)cn3)cc2)CC1 [Example 81, 4-(4-Methylpiperazin-1-yl)-N-[5-(4-pyridin-2-ylpiperazin-1-yl)pyridin-2-yl]benzamide] | 90% | 92% |
| COc1ccc(C(=O)Nc2cnc(N3CCN(c4ccccn4)CC3)cn2)c(F)c1 [Example 84, 2-Fluoro-4-methoxy-N-(5-(4-(pyridin-2-yl)piperazin-1-yl)pyrazin-2-yl)benzamide] | 88% | 100% |
| COc1ccc(C(=O)Nc2cnc(N3CCN(c4ccccn4)CC3)cn2)cc1 [Example 85, 4-Methoxy-N-(5-(4-(pyridin-2-yl)piperazin-1-yl)pyrazin-2-yl)benzamide] | 98% | 107% |
| CN(C)c1ccc(C(=O)Nc2cnc(N3CCN(c4ccccn4)CC3)cn2)cc1 [Example 86, 4-(Dimethylamino)-N-(5-(4-(pyridin-2-yl)piperazin-1-yl)pyrazin-2-yl)benzamide] | 95% | 100% |
| CN1CCN(c2ccc(C(=O)Nc3cnc(N4CCN(c5ccccn5)CC4)cn3)cc2)CC1 [Example 87, 4-(4-Methylpiperazin-1-yl)-N-(5-(4-(pyridin-2-yl)piperazin-1-yl)pyrazin-2-yl)benzamide] | 88% | 98% |
| O=C(Nc1cnc(N2CCN(c3ccccn3)CC2)cn1)c1ccc(N2CCOCC2)cc1 [Example 88, 4-Morpholino-N-(5-(4-(pyridin-2-yl)piperazin-1-yl)pyrazin-2-yl)benzamide] | 87% | 71% |
| Cc1ccc(C(=O)Nc2cnc(N3CCN(c4ccccn4)CC3)cn2)cc1 [Example 89, 4-Methyl-N-(5-(4-(pyridin-2-yl)piperazin-1-yl)pyrazin-2-yl)benzamide] | 85% | 88% |
| Cc1ccc(C(=O)Nc2cnc(N3CCN(c4ccccn4)CC3)cn2)nc1 [Example 90, 5-Methyl-N-(5-(4-(pyridin-2-yl)piperazin-1-yl)pyrazin-2-yl)picolinamide] | 85% | 74% |
| N#Cc1ccc(N2CCN(c3ccc(NC(=O)c4ccc(N5CCOCC5)cc4)cc3)CC2)cc1 [Example 92, N-(4-(4-(4-Cyanophenyl)piperazin-1-yl)phenyl)-4-morpholinobenzamide] | 96% | 86% |
| O=C(Nc1ccc(N2CCN(c3cccs3)CC2)cc1)c1ccc(N2CCOCC2)cc1 [Example 94, 4-Morpholino-N-(4-(4-(thiophen-2-yl)piperazin-1-yl)phenyl)benzamide] | 81% | 93% |
| COc1ccc(C(=O)Nc2cnc(N3CCN(c4ccc(C#N)cn4)CC3)nc2)cc1 [Example 98, N-(2-(4-(5-Cyanopyridin-2-yl)piperazin-1-yl)pyrimidin-5-yl)-4-methoxybenzamide] | 86% | 86% |
| N#Cc1ccc(N2CCN(c3ncc(NC(=O)c4ccc(N5CCOCC5)cc4)cn3)CC2)nc1 [Example 99, N-(2-(4-(5-Cyanopyridin-2-yl)piperazin-1-yl)pyrimidin-5-yl)-4-morpholinobenzamide] | 82% | 86% |
| COc1ccc(C(=O)Nc2ccc(N3CCN(c4ccccn4)CC3)c(F)c2)cc1 [Example 106, N-[3-Fluoro-4-[4-(2-pyridyl)piperazin-1-yl]phenyl]-4-methoxy-benzamide] | 82% | 88% |
| COc1ccc(C(=O)Nc2ccc(N3CCN(c4ccc(C#N)cn4)CC3)c(F)c2)cc1 [Example 107, N-[4-[4-(5-Cyano-2-pyridyl)piperazin-1-yl]-3-fluoro-phenyl]-4-methoxy-benzamide] | 96% | 96% |
| COc1ccc(C(=O)Nc2ccc(N3CCN(c4ccc(C#N)cn4)CC3)c(C)c2)cc1 [Example 113, N-[4-[4-(5-Cyano-2-pyridyl)piperazin-1-yl]-3-methyl-phenyl]-4-methoxy-benzamide] | 87% | 79% |
| COc1ccc(C(=O)Nc2ccc(N3CCN(c4ccc(C#N)cc4)CC3)cc2)c(F)c1 [Example 114, N-[4-[4-(4-Cyanophenyl)piperazin-1-yl]phenyl]-2-fluoro-4-methoxy-benzamide] | 91% | 92% |
| COc1ccc(C(=O)Nc2ccc(N3CCN(c4ccc(C#N)cn4)CC3)cc2)c(F)c1 [Example 115, N-[4-[4-(5-Cyano-2-pyridyl)piperazin-1-yl]phenyl]-2-fluoro-4-methoxy-benzamide] | 87% | 90% |
